Reference: PubChem BioAssay (NCI)
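A five-concentration, 48-hour dose response in 96-well plates underlies each endpoint, interpolated linearly between surrounding concentrations. TGI denotes the concentration required for complete inhibition of growth.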

How the values were obtained:
Test in all cases: growth of human tumour cells (NCI), 48 h
NCI/ADR-RES ovarian = tested on: NCI/ADR-RES ovarian
OVCAR-5 ovarian = tested on: OVCAR-5 ovarian
SF-295 CNS = tested on: SF-295 CNS
SK-MEL-5 melanoma = tested on: SK-MEL-5 melanoma
HCT-15 colon = tested on: HCT-15 colon
SK-MEL-2 melanoma = tested on: SK-MEL-2 melanoma
UO-31 renal = tested on: UO-31 renal
CAKI-1 renal = tested on: CAKI-1 renal
SNB-75 CNS = tested on: SNB-75 CNS
SF-268 CNS = tested on: SF-268 CNS
HL-60(TB) leukemia = tested on: HL-60(TB) leukemia
HS 578T breast = tested on: HS 578T breast
BT-549 breast = tested on: BT-549 breast
KM12 colon = tested on: KM12 colon
NCI-H23 lung = tested on: NCI-H23 lung
MCF7 breast = tested on: MCF7 breast
LOX IMVI melanoma = tested on: LOX IMVI melanoma
NCI-H460 lung = tested on: NCI-H460 lung
HCC-2998 colon = tested on: HCC-2998 colon

Row | Structure (SMILES) | TGI (NCI/ADR-RES ovarian) [µM] | TGI (OVCAR-5 ovarian) [µM] | TGI (SF-295 CNS) [µM] | TGI (SK-MEL-5 melanoma) [µM] | TGI (HCT-15 colon) [µM] | TGI (SK-MEL-2 melanoma) [µM] | TGI (UO-31 renal) [µM] | TGI (CAKI-1 renal) [µM] | TGI (SNB-75 CNS) [µM] | TGI (SF-268 CNS) [µM] | TGI (HL-60(TB) leukemia) [µM] | TGI (HS 578T breast) [µM] | TGI (BT-549 breast) [µM] | TGI (KM12 colon) [µM] | TGI (NCI-H23 lung) [µM] | TGI (MCF7 breast) [µM] | TGI (LOX IMVI melanoma) [µM] | TGI (NCI-H460 lung) [µM] | TGI (HCC-2998 colon) [µM]
1 | CCOC(=O)C1(C/C=C/CBr)CCc2ccccc2C1=O (stereo not given) | 63.5 | 70.2 | 32.9 | 25.2 | 47.5 | 37.7 | 30.9 | 28.8 | 22.6 | 46 | > 100 | 94.4 | 44 | 30.7 | 39.8 | 33.5 | 27.5 | – | –
2 | Cc1cn(C2CC(O)C(CO[Si](C)(C)C(C)(C)C)OC2OC(C)C)c(=O)[nH]c1=O (stereo not given) | > 100 | > 100 | > 100 | 93.9 | > 100 | > 100 | > 100 | > 100 | > 100 | > 100 | – | > 100 | > 100 | > 100 | > 100 | 58.3 | 32.5 | > 100 | 62.7
3 | COc1ccc(-n2cnn3c(=O)c4cn[nH]c4nc23)cc1 | – | > 10 | > 10 | > 10 | – | – | > 10 | – | > 10 | > 10 | > 10 | > 10 | > 10 | > 10 | > 10 | > 10 | > 10 | > 10 | > 10
4 | C#CC(C)(C)OC(=O)C(=[N+]=[N-])C(C)=O | – | > 10 | > 10 | > 10 | > 10 | > 10 | > 10 | – | > 10 | > 10 | > 10 | > 10 | > 10 | > 10 | > 10 | > 10 | > 10 | > 10 | > 10
5 | CC(O)CCCCC(O)CCC[C@H](O)[C@H]1CCC([C@H]2CCC([C@@H](O)CCCCCCCCCCCCC3=C[C@H](C)OC3=O)O2)O1 (stereo not given in full) | 15.4 | 22 | 18.7 | 17.2 | 25.5 | 18.3 | 19 | 21.1 | 18.9 | 22.4 | 26.9 | 29 | 21.3 | 16.2 | 19.5 | 16.3 | – | 18.1 | 23.9
6 | CCOC(=O)/C=C/[C@H](O[Si](CC)(CC)CC)C(C)(C)C | > 100 | > 100 | > 100 | > 100 | > 100 | 80.6 | > 100 | > 100 | > 100 | > 100 | – | > 100 | > 100 | > 100 | > 100 | 66.9 | 46.2 | > 100 | > 100
7 | COc1ccc2c(c1)C(=O)OCCC2 | > 100 | > 100 | > 100 | > 100 | > 100 | > 100 | > 100 | > 100 | > 100 | > 100 | > 100 | > 100 | > 100 | > 100 | > 100 | > 100 | – | > 100 | > 100
8 | O=c1oc2ccccc2cc1-c1cn2ccccc2n1 | 11.9 | 46.7 | 13.5 | 20.1 | 38.9 | 14.4 | 7.02 | 20.5 | 6.37 | 13.2 | – | 53.5 | 26.3 | 37.2 | 29.6 | 30 | 33.4 | 13.4 | 39.4
9 | CCCCCC(=O)CCCCCCCC(O)CC(=O)OCC (stereo not given) | > 100 | > 100 | – | > 100 | > 100 | – | > 100 | > 100 | – | > 100 | > 100 | > 100 | > 100 | > 100 | > 100 | > 100 | > 100 | > 100 | > 100
10 | O=S1(=O)Cc2ccc3c4c2-c2c(ccc5ccc(c-4c25)CS(=O)(=O)C3)C1 | > 100 | > 100 | > 100 | – | > 100 | > 100 | > 100 | – | > 100 | > 100 | > 100 | > 100 | > 100 | > 100 | – | > 100 | > 100 | > 100 | > 100
11 | CCCCSC1=N/C(=C\c2ccco2)C(Cl)=N1 | > 100 | > 100 | > 100 | > 100 | > 100 | > 100 | > 100 | > 100 | > 100 | > 100 | > 100 | > 100 | > 100 | > 100 | > 100 | > 100 | – | > 100 | > 100
12 | O=C(N[C@@H](c1ccccc1)[C@@H](O)C(=O)OCc1ccc([N+](=O)[O-])cc1)c1ccccc1 | > 100 | > 100 | – | > 100 | > 100 | > 100 | > 100 | > 100 | > 100 | > 100 | – | > 100 | > 100 | > 100 | > 100 | > 100 | > 100 | > 100 | > 100
13 | COc1ccc2[nH]c3c(c2c1)CC(=S)N1CCCC(CC3=O)C1 (stereo not given) | > 100 | > 100 | > 100 | > 100 | > 100 | 81.2 | > 100 | > 100 | > 100 | > 100 | – | > 100 | > 100 | > 100 | > 100 | > 100 | – | 92.6 | > 100
14 | O=C(c1cccs1)N(C(=O)N1CCN(c2ccccc2)CC1)S(=O)(=O)c1ccccc1 | 57.2 | 55.7 | > 100 | 30.7 | 75.4 | 36.3 | 40.8 | 59.9 | 61.2 | 80.6 | 45 | 65.9 | 84 | > 100 | 59.5 | 74.6 | – | 97.3 | > 100
15 | Fc1ccc(C(=C2CCN(CCc3ccc4[nH]c(=S)[nH]c4c3)CC2)c2ccc(F)cc2)cc1 | 37.3 | 23 | 18.8 | 5.74 | 11.4 | 7.95 | 5.11 | 28.6 | 7.31 | 25.9 | 4.63 | 40.8 | 14.2 | 19.1 | 13.1 | 5.94 | 39.9 | 8.94 | –
16 | CCC(=O)O[C@H]1CC[C@H]2[C@@H]3CCC4=C/C(=N/OC(=O)c5cccc6c(=O)c7ccccc7[nH]c56)CC[C@]4(C)[C@H]3CC[C@]12C | > 100 | > 100 | > 100 | > 100 | 61.9 | 75.5 | 62.2 | – | > 100 | > 100 | – | > 100 | > 100 | 55.1 | > 100 | 48.2 | 51.4 | 54.5 | 41.2
17 | Cc1cc(C)c2c(c1)C/C(=C\c1ccccc1C(=O)O)C2=O | – | > 100 | > 100 | > 100 | > 100 | – | > 100 | > 100 | > 100 | > 100 | > 100 | > 100 | 97.8 | > 100 | > 100 | > 100 | > 100 | 26.4 | > 100
18 | O=C1c2cccc3cccc(c23)C2NCCCN12 (stereo not given) | > 100 | > 100 | > 100 | > 100 | > 100 | – | > 100 | > 100 | 89.5 | > 100 | > 100 | > 100 | > 100 | > 100 | > 100 | > 100 | > 100 | > 100 | > 100
19 | COc1ccc(NC(=O)N(C)CC2(O)CCC(C(C)(C)C)CC2)cc1 (stereo not given) | > 100 | > 100 | 91.7 | – | > 100 | > 100 | > 100 | 10.3 | > 100 | > 100 | > 100 | > 100 | > 100 | > 100 | > 100 | > 100 | 74.7 | > 100 | –
20 | COc1ccc(C2OC(N)=C(C#N)C3=C2CCCC3C)cc1OC (stereo not given) | > 100 | > 100 | > 100 | > 100 | > 100 | > 100 | > 100 | > 100 | > 100 | > 100 | > 100 | > 100 | > 100 | > 100 | > 100 | > 100 | > 100 | > 100 | –
21 | O=C(c1ccccc1)c1c(-c2ccccc2)n(-c2ccccc2)[nH]c(=O)c1=O | > 100 | > 100 | > 100 | > 100 | > 100 | 65.7 | > 100 | > 100 | – | > 100 | 85 | 62.1 | 91.7 | > 100 | > 100 | > 100 | > 100 | > 100 | > 100
22 | CC(C)N(C(=O)C1(O)c2ccccc2C=Cc2ccccc21)C(C)C | 35.4 | 27.9 | 33.7 | 29.8 | 44.6 | 30.7 | 40.1 | 57.7 | – | 36 | – | 68.8 | 34.6 | 49.7 | 34.2 | 31 | – | – | –
23 | CCOC(=O)c1c(NC(=O)OC)c(C#N)c2n1CCCCC2 | > 100 | – | > 100 | > 100 | > 100 | > 100 | > 100 | > 100 | > 100 | > 100 | > 100 | > 100 | > 100 | > 100 | > 100 | > 100 | > 100 | > 100 | > 100
24 | Cc1ccccc1N/C(=C(/C(Cl)=C(Cl)Cl)[N+](=O)[O-])n1nnc2ccccc21 | 49.5 | 33.6 | 28.8 | – | 31.6 | 33 | 31.8 | 34.9 | 34.2 | 30.8 | – | 27.1 | 27.5 | 29.4 | 33.3 | 86.5 | – | 28.5 | 35.8
25 | COc1ccc(-c2nc(-c3cc4c(ccc5ccccc54)oc3=O)cs2)cc1 | – | > 100 | > 100 | > 100 | > 100 | > 100 | > 100 | > 100 | > 100 | > 100 | > 100 | > 100 | > 100 | > 100 | – | > 100 | > 100 | > 100 | > 100
26 | COC(=O)c1ccccc1Nc1nc(-c2cccs2)nc2cc(OC)c(OC)cc12 | > 100 | > 100 | 97.7 | > 100 | > 100 | > 100 | > 100 | > 100 | > 100 | > 100 | > 100 | > 100 | > 100 | > 100 | > 100 | > 100 | > 100 | > 100 | –
27 | c1ccc(NN=C(c2ccccn2)c2ccccn2)nc1 | 5.05 | > 100 | > 100 | > 100 | > 100 | > 100 | 0.513 | > 100 | > 100 | > 100 | – | > 100 | > 100 | > 100 | > 100 | > 100 | > 100 | > 100 | > 100
